Values quoted from earlier work in patent US20210319872A1, “DRUG AND DEVICE COMBINATION PRODUCTS WITH IMPROVED SAFETY AND EFFICACY PROFILES” (priority 2016, published 2021).
Where two headings read alike, the source gives them in different places.

[1] = nonvalvular atrial fibrillation
[2] = chronic hepatitis C-associated thrombocytopenia
[3] = chronic idiopathic thrombocytopenic purpura

Cc1cc2c(s1)Nc1ccccc1N=C2N1CCN(C)CC1 [Olanzapine (Zyprexa)]
Akathisia (in vivo): Neurologic: Akathisia (5% to 27%), Asthenia (2% to 20%),
Asthenia (in vivo): Neurologic: Akathisia (5% to 27%), Asthenia (2% to 20%),
Constipation (in vivo): Gastrointestinal: Constipation (4% to 11%), Xerostomia (Adult, up
Dizziness (in vivo): Dizziness (Adult, 1.6% to 18%; adolescent, 7% to 8%),
Hyperprolactinemia (in vivo): adolescent, up to 14%), Hyperprolactinemia (30% to 61.1%),
Increased appetite (in vivo): Increased appetite (Adult, 3% to 24%; adolescent, 17% to 29%),
Orthostatic hypotension (in vivo): Cardiovascular: Orthostatic hypotension (More than 5%),
Peripheral edema (in vivo): Peripheral edema (3% to 6%)
Personality disorder (in vivo): Psychiatric: Personality disorder (8%)
Serum triglycerides raised (in vivo): Serum triglycerides raised (20.8% to 40%), Weight increased, 7%
Somnolence (in vivo): Somnolence (IM, 6%; oral, 20% to 52%), Tremor (1% to 23%)
Tremor (in vivo): Somnolence (IM, 6%; oral, 20% to 52%), Tremor (1% to 23%)
Somnolence (in vivo, po): Somnolence (IM, 6%; oral, 20% to 52%), Tremor (1% to 23%)

CN1CC[C@]23c4c5ccc(O)c4O[C@H]2C(=O)CC[C@@]3(O)[C@H]1C5 [Oxymorphone, reference compound]
Abdominal pain (in vivo): Gastrointestinal: Abdominal pain (1% to less than 10%),
Bowel obstruction (in vivo): Gastrointestinal: Bowel obstruction (less than 1%)
Constipation (in vivo): Constipation (4.1% to 27.6%), Nausea (2.9% to 33.1%), Vomiting
Fatigue (in vivo): Other: Fatigue (1% to less than 10%), Fever (1% to 14.2%)
Fever (in vivo): Other: Fatigue (1% to less than 10%), Fever (1% to 14.2%)
Headache (in vivo): 17%), Headache (4% to 12%), Somnolence (2% to 19%)
Hypotension (in vivo): Cardiovascular: Hypotension (less than 10%)
Hypoxia (in vivo): < 10%)
Nausea (in vivo): Constipation (4.1% to 27.6%), Nausea (2.9% to 33.1%), Vomiting
Pruritus (in vivo): Dermatologic: Pruritus (less than or equal to 15.2%), Sweating
Serious side effect, Neurologic (in vivo): Neurologic: Coma
Serious side effect, Respiratory (in vivo): Respiratory: Respiratory depression
Somnolence (in vivo): 17%), Headache (4% to 12%), Somnolence (2% to 19%)
Sweating symptom (in vivo): symptom (1% to less than 10%)
Vomiting (in vivo): (less than or equal to 15.6%), Xerostomia (1% to less than 10%)
Xerostomia (in vivo): (less than or equal to 15.6%), Xerostomia (1% to less than 10%)

Fc1ccc([C@@H]2CCNC[C@H]2COc2ccc3c(c2)OCO3)cc1 [Paroxetine (Paxil)]
Abnormal ejaculation (in vivo): Reproductive: Abnormal ejaculation (13% to 28%), Erectile
Asthenia (in vivo): Neurologic: Asthenia (up to 22%), Dizziness (6% to 14%),
Constipation (in vivo): Gastrointestinal: Constipation (up to 16%), Diarrhea (up to 18%),
Diaphoresis (in vivo): Dermatologic: Diaphoresis (5% to 14%)
Diarrhea (in vivo): Gastrointestinal: Constipation (up to 16%), Diarrhea (up to 18%),
Dizziness (in vivo): Neurologic: Asthenia (up to 22%), Dizziness (6% to 14%),
Erectile dysfunction (in vivo): dysfunction (2% to 9%), Orgasm disorder (females; 2% to 9%),
Headache (in vivo): Headache (17% to 27%), Insomnia (up to 24%), Somnolence (up to
Nausea (in vivo): Loss of appetite (up to 9%), Nausea (up to 26%), Xerostomia (9%
Orgasm disorder (in vivo): dysfunction (2% to 9%), Orgasm disorder (females; 2% to 9%),
Palpitations (in vivo): Cardiovascular: Palpitations (up to 3%), Vasodilatation (2% to 4%)
Reduced libido (in vivo): Reduced libido (males: 6% to 15%; females: 0% to 9%)
Seizure (in vivo): Neurologic: Seizure (0.1%)
Somnolence (in vivo): ≤ 24%), Tremor (4% to 11%)
Tremor (in vivo): 24%), Tremor (4% to 11%)
Vasodilatation (in vivo): Cardiovascular: Palpitations (up to 3%), Vasodilatation (2% to 4%)
Xerostomia (in vivo): Loss of appetite (up to 9%), Nausea (up to 26%), Xerostomia (9%
Yawning (in vivo): Respiratory: Yawning (4%)

CCC[C@H](N[C@@H](C)C(=O)N1[C@H](C(=O)O)C[C@@H]2CCCC[C@@H]21)C(=O)OCC [Perindopril (Aceon)]
Angioedema (in vivo): Other: Angioedema (0.1% to 0.5%)
Backache (in vivo): Musculoskeletal: Backache (5.8%)
Cough (in vivo): Respiratory: Cough (12%)
Dizziness (in vivo): Neurologic: Asthenia, Dizziness (8.2%), Headache
Orthostatic hypotension (in vivo): Cardiovascular: Cardiac arrest, Orthostatic hypotension (0.8%)

CCCCCCOC(=O)NC(=N)c1ccc(NCc2nc3cc(C(=O)N(CCC(=O)OCC)c4ccccn4)ccc3n2C)cc1 [Pradaxa]
Gastroesophageal reflux disease (Atrial fibrillation): disease (Atrial fibrillation, 5.5%), Gastrointestinal hemorrhage
Indigestion (DVT and pulmonary embolism): pulmonary embolism, 7.5%)
Intracranial hemorrhage (DVT and pulmonary embolism): 0.1%
Bleeding (DVT and pulmonary embolism prophylaxis): 10.5%
Serious side effect, Hematologic (listed without frequency): Thrombosis
Serious side effect, Immunologic (listed without frequency): Immunologic: Anaphylaxis
Serious side effect, Respiratory (listed without frequency): Respiratory: Bleeding, Alveolar
Bleeding [1]: 16.6%
Bleeding, Major [1]: 3.3%
Gastrointestinal hemorrhage [1]: 6.1%
Gastrointestinal hemorrhage, Major [1]: 1.6%)
Intracranial hemorrhage [1]: (nonvalvular atrial fibrillation, 0.3%; DVT and pulmonary
Myocardial infarction [1]: 0.7%

CCCN[C@H]1CCc2nc(N)sc2C1 [Pramipexole (Mirapex)]
Amnesia (in vivo): Neurologic: Amnesia (4% to 6%), Asthenia (Immediate-release,
Asthenia (in vivo): 10% to 14%; extended-release, 3%), Confusion (4% to 10%),
Confusion (in vivo): 10% to 14%; extended-release, 3%), Confusion (4% to 10%),
Dizziness (in vivo): Dizziness (Immediate-release, 3% to 26%; extended-release, 2% to
Dream disorder (in vivo): ≤ 12%), Dream disorder (Up to 11%), Dyskinesia (Immediate-
Dyskinesia (in vivo): release, 18% to 47%; extended-release, 17%), Extrapyramidal
Extrapyramidal movements (in vivo): movements (28%), Headache (Immediate-release, 4% to 16%;
Hallucinations (in vivo): Psychiatric: Hallucinations (5% to 17%)
Sleep attack (in vivo): Neurologic: Sleep attack (2% to 6%), Somnolence (Immediate-
Somnolence (in vivo): release, 6% to 33%; extended-release, 15% to 36%)

CC1=NN(c2ccc(C)c(C)c2)C(=O)/C1=N\Nc1cccc(-c2cccc(C(=O)O)c2)c1O [Promacta]
AST/SGOT level raised (Adult): 4%
Headache (Chronic hepatitis C-associated thrombocytopenia and aplastic anemia): thrombocytopenia and aplastic anemia, 21%; chronic idiopathic
Cough (aplastic anemia): Respiratory: Cough (Aplastic anemia, 23%; chronic ITP, pediatric,
Diarrhea (aplastic anemia): 21%
Fever (aplastic anemia): 14%
Nausea (aplastic anemia): 33%), Pain in throat (Chronic idiopathic thrombocytopenic
Pain in throat (aplastic anemia): 14%
ALT/SGPT level raised (chronic ITP, pediatric): 6%
Cough (chronic ITP, pediatric): 9%
Anemia [2]: thrombocytopenia, 40%)
Diarrhea [2]: thrombocytopenia, 19%; chronic idiopathic thrombocytopenic
Fever [2]: 30%
Liver failure [2]: associated thrombocytopenia, 7%), Liver function tests abnormal
Nausea [2]: (Chronic hepatitis C-associated thrombocytopenia, 19%; chronic
Portal vein thrombosis [2]: C-associated thrombocytopenia, 1%), Thrombosis (chronic
Thrombosis [2]: hepatitis C-associated thrombocytopenia, 3%)
Fatigue [3]: purpura, 4%), Fever (Chronic hepatitis C-associated
Headache [3]: thrombocytopenic purpura, 10%)
Pain in throat [3]: 4%
Diarrhea (chronic idiopathic thrombocytopenic purpura, adults): 9%
Diarrhea (chronic idiopathic thrombocytopenic purpura, pediatric): 5%
Epistaxis (in vivo): 13%
Liver function tests abnormal (in vivo): (11%)
Pharyngitis (in vivo): 4%
Urinary tract infectious disease (in vivo): Renal: Urinary tract infectious disease (5%)
Vomiting (in vivo): Vomiting (6%)
Serious side effect, Hematologic (listed without frequency): Hematologic: Bleeding, Portal vein thrombosis (chronic hepatitis
Serious side effect, Hepatic (listed without frequency): Hepatic: Hepatotoxicity, Liver failure (chronic hepatitis C-
Serious side effect, Renal (listed without frequency): Renal: Acute renal failure
AST/SGOT level raised (pediatric): 5%

CC(C)NCC(O)COc1cccc2ccccc12 (stereo not drawn) [Propranolol (Inderal)]
Dizziness (in vivo): Neurologic: Dizziness (Hypertension, 4% to 7%), Sleep disorder
Fatigue (in vivo): Other: Fatigue (5% to 7%)

CCOC(=O)[C@H](CCc1ccccc1)N[C@@H](C)C(=O)N1Cc2ccccc2C[C@H]1C(=O)O [Quinapril (Accupril)]
Chest pain (in vivo): Cardiovascular: Chest pain (2.4%), Hypotension (2.9%)
Cough (in vivo): Respiratory: Cough (2% to 4.3%)
Dizziness (in vivo): Neurologic: Dizziness (3.9% to 7.7%), Headache (1.7% to 6.9%)
Fatigue (in vivo): Other: Fatigue (2.6%)
Headache (in vivo): Neurologic: Dizziness (3.9% to 7.7%), Headache (1.7% to 6.9%)
Hypotension (in vivo): Cardiovascular: Chest pain (2.4%), Hypotension (2.9%)
Nausea and vomiting (in vivo): Gastrointestinal: Nausea and vomiting (1.4% to 2.4%)
Serum blood urea nitrogen raised (in vivo): Renal: Serum blood urea nitrogen raised (2% to 8%), Serum
Serum creatinine raised (in vivo): creatinine raised (2% to 11%)

CCOC(=O)[C@H](CCc1ccccc1)N[C@@H](C)C(=O)N1[C@H](C(=O)O)C[C@@H]2CCC[C@@H]21 [Ramipril (Altace)]
Cough (in vivo): Respiratory: Cough (8% to 12%)
Dizziness (in vivo): Neurologic: Asthenia, Dizziness (2.2% to 4%), Headache (5.4%)
Headache (in vivo): Neurologic: Asthenia, Dizziness (2.2% to 4%), Headache (5.4%)
Hypotension (in vivo): Cardiovascular: Hypotension (11%)
